Laboratory results: US20230011869A1 (Hoffmann-La Roche Inc., priority 2018, published 2023)
Where a name gives a salt, the structure may show the parent alone.

System: Acinetobacter baumannii ATCC17961
Assay: Antimicrobial susceptibility testing: 90% growth inhibitory concentration (IC90) determination, Iso-Sensitest broth
Assay type: cell-based
Conditions: 90% growth inhibitory concentration, Acinetobacter baumannii ATCC17961, Iso-Sensitest broth, OD 600 nm over 16 h; read-out: ATCC17961 IC90
Procedure, shortened: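 Growth followed by optical density at 600 nm every 20 minutes for 16 h at 35±2° C, with inhibition assessed in log phase to give IC90. Compounds tested as twofold dilution series (e.g. 50 to 0.097 μM final) against 5×10^(5) CFU/ml in Iso-Sensitest medium.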

IC90 [nM] | SMILES
141 | COc1ccc(-c2cnc3c(Nc4ccc(C(=O)N5CCC(CN)CC5)c(C)c4)nccn23)cc1 [Example 293, [4-(aminomethyl)piperidin-1-yl]-[4-[[3-(4-methoxyphenyl)imidazo[1,2-a]pyrazin-8-yl]amino]-2-methylphenyl]methanone]

Same assay, conditions: Acinetobacter baumannii, ATCC17961, 16 h, 90% growth inhibitory concentration, Acinetobacter baumannii ATCC17961, Iso-Sensitest broth, OD 600 nm over 16 h; read-out: ATCC17961 IC90

SMILES | IC90 [nM]
COc1ccc(-c2cnc3c(Nc4ccc(C(=O)N5CCC(C(=O)NC[C@H](O)[C@@H](O)CN)CC5)c(C)c4)nccn23)c(F)c1F [Example 294, N-[(2S,3S)-4-amino-2,3-dihydroxybutyl]-1-[4-[[3-(2,3-difluoro-4-methoxyphenyl)imidazo[1,2-a]pyrazin-8-yl]amino]-2-methylbenzoyl]piperidine-4-carboxamide] | 160
COc1ccc(-c2cnc3c(Nc4ccc(C(=O)N5CCN(C(=O)[C@]6(O)C[C@@H](O)[C@@H](O)[C@H](O)C6)CC5)c(C)c4)nccn23)c(F)c1F [Example 295, [4-[[3-(2,3-difluoro-4-methoxyphenyl)imidazo[1,2-a]pyrazin-8-yl]amino]-2-methylphenyl]-[4-[(3R,5R)-1,3,4,5-tetrahydroxycyclohexanecar-bonyl]piperazin-1-yl]methanone] | 171
COc1ccc(-c2cnc3c(Nc4ccc(C(=O)N5CCN(S(=O)(=O)[C@H]6CCNC6)CC5)c(C)c4)nccn23)c(F)c1F [Example 297, [4-[[3-(2,3-difluoro-4-methoxyphenyl)imidazo[1,2-a]pyrazin-8-yl]amino]-2-methylphenyl]-[4-[(3S)-pyrrolidin-3-yl]sulfonylpiperazin-1-yl]methanone] | 192

Now from value to compound:

IC90 [nM] | SMILES
137 | CC[C@]1(O)CN[C@H](C(=O)N2CCN(C(=O)c3ccc(Nc4nccn5c(-c6ccc(OC)c(F)c6)cnc45)cc3C)CC2)C1 [Example 464, [4-[(2S,4R)-4-ethyl-4-hydroxypyrrolidine-2-carbonyl]piperazin-1-yl]-[4-[[3-(3-fluoro-4-methoxyphenyl)imidazo[1,2-a]pyrazin-8-yl]amino]-2-methylphenyl]methanone; for-mic acid]
175 | CCc1cc(Nc2nccn3c(-c4ccc(OC)c(F)c4F)cnc23)ccc1C(=O)N1CCNCC1 [Example 466]
1920 | COc1ccc(-c2cnc3c(Nc4ccc(C(=O)N5CCN(C(=O)[C@H](CCCN)NC(=O)[C@@H](N)CCC(=O)O)CC5)c(C)c4)nccn23)c(F)c1F [Example 535, (4S)-4-amino-5-[[2S)-5-amino-1-[4-[4-[[3-(2,3-difluoro-4-methoxyphenyl)imidazo[1,2-a]pyrazin-8-yl]amino]-2-methylbenzoyl]piperazin-1-yl]-1-oxopentan-2-yl]amino]-5-oxopentanoic acid; hydrochloride]
88 | Cc1cc(Nc2nccn3c(-c4ccc(OCC#N)c(F)c4Cl)cnc23)ccc1C(=O)N1CCC(C(=O)N2CCN[C@H](CO)C2)CC1 [Example 538, 2-[3-chloro-2-fluoro-4-[8-[4-[4-[(3S)-3-(hydroxymethyl)piperazine-1-carbonyl]piperidine-1-carbonyl]-3-methylanilino]imidazo[1,2-a]pyrazin-3-yl]phenoxy]acetonitrile; for-mic acid]
38 | Cc1cc(Nc2nccn3c(-c4ccc(OCC#N)c(F)c4F)cnc23)ccc1C(=O)N1CCN(C(=O)CN(C)C)CC1 [Example 545, 2-[4-[8-[4-[4-[2-(dimethylamino)acetyl]piper-azine-1-carbonyl]-3-methylanilino]imidazo[1,2-a]pyrazin-3-yl]-2,3-difluorophenoxy]acetonitrile; formic acid]

Same assay, conditions: Acinetobacter baumannii, ATCC17961, 16 h, read-out: ATCC17961 IC90

SMILES | IC90 [nM]
COc1ccc(-c2cnc3c(Nc4ccc(C(=O)N5CCN(C(=O)[C@]6(O)CNCC[C@H]6O)CC5)c(C)c4)nccn23)c(F)c1F [Example 288, [4-[[3-(2,3-difluoro-4-methoxyphenyl)imidazo[1,2-a]pyrazin-8-yl]amino]-2-methylphenyl]-[4-[(3S,4R)-3,4-dihydroxypiperidine-3-carbonyl]piperazin-1-yl]methanone; hydrochloride] | 88
COc1ccc(-c2cnc3c(Nc4ccc(C(=O)N5CCN(C(=O)N6CCN[C@@H]([C@@H](C)O)C6)CC5)c(C)c4)nccn23)c(F)c1F [Example 289, [4-[[3-(2,3-difluoro-4-methoxyphenyl)imidazo[1,2-a]pyrazin-8-yl]amino]-2-methylphenyl]-[4-[(3R)-3-[(1R)-1-hydroxyethyl]piperazine-1-carbonyl]piperazin-1-yl]methanone; hydrochloride] | 89
COc1ccc(-c2cnc3c(Nc4ccc(C(=O)N5CCN(C(=O)[C@@]6(O)CNCC[C@@H]6O)CC5)c(C)c4)nccn23)c(F)c1F [Example 290, [4-[[3-(2,3-difluoro-4-methoxyphenyl)imidazo[1,2-a]pyrazin-8-yl]amino]-2-methylphenyl]-[4-[(3R,4S)-3,4-dihydroxypiperidine-3-carbonyl]piperazin-1-yl]methanone; hydrochloride] | 109
COc1ccc(-c2cnc3c(Nc4ccc(C(=O)N5CCC(C(=O)N6CCN[C@@H]([C@@H](C)O)C6)CC5)c(C)c4)nccn23)c(F)c1F [Example 292, [4-[[3-(2,3-difluoro-4-methoxyphenyl)imidazo[1,2-a]pyrazin-8-yl]amino]-2-methylphenyl]-[4-[(3R)-3-[(1R)-1-hydroxyethyl]piperazine-1-carbonyl]piperidin-1-yl]methanone; hydrochloride] | 123
COc1ccc(-c2cnc3c(Nc4ccc(C(=O)N5CCN(C(=O)[C@@H]6C[C@](C)(O)CN6)CC5)c(C)c4)nccn23)c(F)c1F [Example 455, [4-[[3-(2,3-difluoro-4-methoxyphenyl)imidazo[1,2-a]pyrazin-8-yl]amino]-2-methylphenyl]-[4-[(2S,4S)-4-hydroxy-4-methylpyrrolidine-2-carbonyl]piperazin-1-yl]methanone; formic acid] | 66
COc1ccc(-c2cnc3c(Nc4ccc(C(=O)N5CCN(C(=O)[C@@H]6C[C@](C)(O)CN6)CC5)c(C)c4)nccn23)cc1F [Example 461, [4-[[3-(3-fluoro-4-methoxyphenyl)imidazo[1,2-a]pyrazin-8-yl]amino]-2-methylphenyl]-[4-[(2S,4S)-4-hydroxy-4-methylpyrrolidine-2-carbonyl]piperazin-1-yl]methanone; formic acid] | 148
COc1ccc(-c2cnc3c(Nc4ccc(C(=O)N5CCN(C(=O)[C@@H]6C[C@@](C)(O)CN6)CC5)c(C)c4)nccn23)cc1F [Example 463, [4-[[3-(3-fluoro-4-methoxyphenyl)imidazo[1,2-a]pyrazin-8-yl]amino]-2-methylphenyl]-[4-[(2S,4R)-4-hydroxy-4-methylpyrrolidine-2-carbonyl]piperazin-1-yl]methanone; formic acid] | 132
COc1ccc(-c2cnc3c(Nc4ccc(C(=O)N5CCN(C(=O)CC[C@H](NC(=O)[C@@H](N)CCCCN)C(=O)O)CC5)c(C)c4)nccn23)c(F)c1F [Example 531, (2S)-2-[[(2S)-2,6-diaminohexanoyl]amino]-5-[4-[4-[[3-(2,3-difluoro-4-methoxyphenyl)imidazo[1,2-a]pyrazin-8-yl]amino]-2-methylbenzoyl]piperazin-1-yl]-5-oxopentanoic acid; hydrochloride] | 686
